Reference: patent publication US20100056526A1, “HETEROMONOCYCLIC COMPOUND AND USE THEREOF” (Takeda Pharmaceutical Company Limited, priority 2006, published 2010)

Key:
PPARγ = molecular target: T1, PPARγ (Homo sapiens, UniProt P37231); test: Evaluation of PPARγ activating action (luciferase reporter in PPARγ:RXRα:4ERPP/CHO-K1 cells); type: cell-based; settings: CHO-K1, 24 h; test compound 10^−6 M; luciferase activity relative to control compound X (1 μM) = 100%, non-administration group = 0%; read-out: PPARγ activating action (activation % (10^−6 M))
T1 construct: expressed in transfected cells; host or cells: CHO-K1
T1 sequence (P37231 1-477 isoform P37231-2): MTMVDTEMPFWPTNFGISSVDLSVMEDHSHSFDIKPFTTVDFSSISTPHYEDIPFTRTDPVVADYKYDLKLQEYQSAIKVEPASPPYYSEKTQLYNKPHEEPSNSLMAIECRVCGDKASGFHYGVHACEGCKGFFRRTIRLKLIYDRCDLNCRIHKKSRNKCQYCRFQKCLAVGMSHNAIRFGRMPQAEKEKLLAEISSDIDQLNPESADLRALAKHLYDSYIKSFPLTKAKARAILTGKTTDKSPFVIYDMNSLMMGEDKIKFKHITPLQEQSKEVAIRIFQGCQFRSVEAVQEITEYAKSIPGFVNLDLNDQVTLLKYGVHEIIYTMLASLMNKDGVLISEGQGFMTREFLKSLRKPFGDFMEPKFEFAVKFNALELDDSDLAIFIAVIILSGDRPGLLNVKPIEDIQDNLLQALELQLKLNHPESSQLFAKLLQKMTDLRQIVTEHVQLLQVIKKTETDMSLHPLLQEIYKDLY
T1 sequence (P19793 1-462 partner): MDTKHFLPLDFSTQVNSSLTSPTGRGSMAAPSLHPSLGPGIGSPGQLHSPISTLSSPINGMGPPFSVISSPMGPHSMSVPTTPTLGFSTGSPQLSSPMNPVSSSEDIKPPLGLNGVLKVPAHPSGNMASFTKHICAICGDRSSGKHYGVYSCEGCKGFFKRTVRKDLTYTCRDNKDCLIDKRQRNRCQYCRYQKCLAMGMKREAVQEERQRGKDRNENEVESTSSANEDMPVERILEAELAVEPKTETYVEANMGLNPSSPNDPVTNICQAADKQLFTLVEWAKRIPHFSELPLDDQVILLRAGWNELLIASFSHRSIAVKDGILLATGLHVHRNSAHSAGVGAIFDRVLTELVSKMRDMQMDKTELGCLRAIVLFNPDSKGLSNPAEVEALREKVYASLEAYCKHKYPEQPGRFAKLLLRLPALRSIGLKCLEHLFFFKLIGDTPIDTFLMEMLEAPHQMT
Procedure, shortened: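 Activity is expressed as percent, where vehicle gives 0% and 1 μM compound X gives 100%, based on luciferase luminescence. Reporter CHO-K1 cells co-expressing PPARγ:RXRα with a 4ERPP-driven luciferase were incubated with test compound for one day at 37 °C in medium with 0.1% fatty acid-free BSA.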

human AT1 receptor = molecular target: T2, human AT1 receptor (Homo sapiens, UniProt P30556); test: Binding assay using human AT1 receptor-expressing CHO-K1 cell membrane fraction ([125I]-angiotensin II); settings: 22.5 pM [125I]-angiotensin II, 9 μg AT1 membrane, 1 hr room temperature; read-out: AT1 receptor binding inhibitory action (IC50 (nM))
T2 construct: expressed in transfected cells; host or cells: CHO-K1
T2 sequence (P30556 1-359): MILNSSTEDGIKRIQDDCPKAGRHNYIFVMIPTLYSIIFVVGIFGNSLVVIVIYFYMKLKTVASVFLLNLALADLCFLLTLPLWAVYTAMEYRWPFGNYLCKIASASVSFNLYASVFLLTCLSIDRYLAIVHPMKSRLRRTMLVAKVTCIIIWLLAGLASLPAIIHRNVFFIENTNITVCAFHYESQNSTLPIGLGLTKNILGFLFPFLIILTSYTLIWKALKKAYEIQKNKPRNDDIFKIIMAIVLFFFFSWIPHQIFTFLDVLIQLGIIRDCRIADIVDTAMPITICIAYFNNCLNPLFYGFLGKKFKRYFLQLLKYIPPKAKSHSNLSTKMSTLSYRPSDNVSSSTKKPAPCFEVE
Procedure, shortened: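 Radioligand displacement: test compound competed with [125I]-angiotensin II (22.5 pM) on stable CHO-K1 AT1 membrane fraction, 1 hr, room temperature, Tris pH 7.4/MgCl2 buffer ± 0.3 mg/mL BSA. Filtration then scintillation counting; 1 μM CV-11974 defined nonspecific binding. Values are IC50s.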

Structure (SMILES) | activation at 1 µM (PPARγ) [%] | IC50 (human AT1 receptor) [nM]
CCCc1nc(CC)n(-c2ccc(OC(C)C)nc2)c(=O)c1Cc1ccc(-c2ccccc2-c2noc(=O)[nH]2)cc1 [Example 373, 2-ethyl-3-(6-isopropoxypyridin-3-yl)-5-{[2′-(5-oxo-4,5-dihydro-1,2,4-oxadiazol-3-yl)biphenyl-4-yl]methyl}-6-propylpyrimidin-4(3H)-one] | 48.4 | 2.4
CCCc1nc(C)n(-c2ccc(OC3CCC(=O)CC3)cc2)c(=O)c1Cc1ccc(-c2ccccc2-c2noc(O)n2)cc1F [Example 346, 5-{[3-fluoro-2′-(5-oxo-4,5-dihydro-1,2,4-oxadiazol-3-yl)biphenyl-4-yl]methyl}-2-methyl-3-{4-[(4-oxocyclohexyl)oxy]phenyl}-6-propylpyrimidin-4(3H)-one] | 21.8 | 1
CCCc1nc(CC)n(-c2ccc(OC3CCOC(C)(C)C3)cc2)c(=O)c1Cc1ccc(-c2ccccc2-c2noc(=O)[nH]2)cc1 (stereo not drawn) [Example 413, 3-{4-[(2,2-dimethyltetrahydro-2H-pyran-4-yl)oxy]phenyl}-2-ethyl-5-{[2′-(5-oxo-4,5-dihydro-1,2,4-oxadiazol-3-yl)biphenyl-4-yl]methyl}-6-propylpyrimidin-4(3H)-one] | 18.9 | 1.7
CCCc1nc(CC)c(CN2CCOCC2)c(=O)n1Cc1ccc(-c2ccccc2-c2noc(=O)[nH]2)cc1 [Example 455, 6-ethyl-5-(morpholin-4-ylmethyl)-3-{[2′-(5-oxo-4,5-dihydro-1,2,4-oxadiazol-3-yl)biphenyl-4-yl]methyl}-2-propylpyrimidin-4(3H)-one] | 16 | 2
CCCc1nc(CC)c(-c2ccc(OCC)nc2)c(=O)n1Cc1ccc(-c2ccccc2-c2noc(O)n2)cc1 [Example 507, 5-(6-ethoxypyridin-3-yl)-6-ethyl-3-{[2′-(5-oxo-4,5-dihydro-1,2,4-oxadiazol-3-yl)biphenyl-4-yl]methyl}-2-propylpyrimidin-4(3H)-one] | 32.4 | 2.2
CCCc1nc(CC)n(-c2ccc(OC3(CO)CCCC3)cc2)c(=O)c1Cc1ccc(-c2ccccc2-c2noc(=O)[nH]2)cc1 [Example 390, 2-ethyl-3-(4-{[1-(hydroxymethyl)cyclopentyl]oxy}phenyl)-5-{[2′-(5-oxo-4,5-dihydro-1,2,4-oxadiazol-3-yl)biphenyl-4-yl]methyl}-6-propylpyrimidin-4(3H)-one] | 19.9 | 1.2
CCCc1nc(C)n(-c2ccc(OC3CCC(=O)C(C)C3)cc2)c(=O)c1Cc1ccc(-c2ccccc2-c2noc(O)n2)cc1 (stereo not drawn) [Example 356, 2-methyl-3-{4-[(3-methyl-4-oxocyclohexyl)oxy]phenyl}-5-{[2′-(5-oxo-4,5-dihydro-1,2,4-oxadiazol-3-yl)biphenyl-4-yl]methyl}-6-propylpyrimidin-4(3H)-one] | 16.6 | 1.1
CCCc1nc(CC)n(-c2ccc(OC(C)(C)C)cc2)c(=O)c1Cc1ccc(-c2ccccc2-c2noc(=O)[nH]2)cc1 [Example 364, 3-(4-tert-butoxyphenyl)-2-ethyl-5-{[2′-(5-oxo-4,5-dihydro-1,2,4-oxadiazol-3-yl)biphenyl-4-yl]methyl}-6-propylpyrimidin-4(3H)-one] | 32.6 | 1.9
CCCc1nc(C)c(-c2ccc(OC(C)C)cc2)c(=O)n1Cc1ccc(-c2ccccc2-c2noc(O)n2)cc1 [Example 28, 5-(4-isopropoxyphenyl)-6-methyl-3-{[2′-(5-oxo-4,5-dihydro-1,2,4-oxadiazol-3-yl)biphenyl-4-yl]methyl}-2-propylpyrimidin-4(3H)-one] | 16.2 | 1.6
CCCc1nc(C)n(-c2ccc(O[C@@H]3C[C@@H](C)O[C@@H](C)C3)cc2)c(=O)c1Cc1ccc(-c2ccccc2-c2noc(=O)[nH]2)cc1F [Example 338, 3-(4-{[(2R,4s,6S)-2,6-dimethyltetrahydro-2H-pyran-4-yl]oxy}phenyl)-5-{[3-fluoro-2′-(5-oxo-4,5-dihydro-1,2,4-oxadiazol-3-yl)biphenyl-4-yl]methyl}-2-methyl-6-propylpyrimidin-4(3H)-one] | 32.5 | 1.8

Further lines, results first:

activation at 1 µM (PPARγ) [%] | IC50 (human AT1 receptor) [nM] | Structure (SMILES)
62.9 | 1.2 | CCCc1nc(CC)n(-c2ccc(OC(C)(C)C(C)=O)cc2)c(=O)c1Cc1ccc(-c2ccccc2-c2noc(=O)[nH]2)cc1 [Example 445, 3-[4-(1,1-dimethyl-2-oxopropoxy)phenyl]-2-ethyl-5-{[2′-(5-oxo-4,5-dihydro-1,2,4-oxadiazol-3-yl)biphenyl-4-yl]methyl}-6-propylpyrimidin-4 (3H)-one]
53.7 | 2.1 | CCCc1nc(CC)n(-c2ccc(OC(C)C)c(F)c2)c(=O)c1Cc1ccc(-c2ccccc2-c2noc(=O)[nH]2)cc1 [Example 363, 2-ethyl-3-(3-fluoro-4-isopropoxyphenyl)-5-{[2′-(5-oxo-4,5-dihydro-1,2,4-oxadiazol-3-yl)biphenyl-4-yl]methyl}-6-propylpyrimidin-4(3H)-one]
25.3 | 1.5 | CCCCc1nc(C)n(-c2ccc(C)c(C)c2)c(=O)c1Cc1ccc(-c2ccccc2-c2noc(=O)[nH]2)cc1 [Example 202, 6-butyl-3-(3,4-dimethylphenyl)-2-methyl-5-{[2′-(5-oxo-4,5-dihydro-1,2,4-oxadiazol-3-yl)biphenyl-4-yl]methyl}pyrimidin-4(3H)-one]
46.3 | 1.8 | CCCCc1nc(C)n(Cc2ccc(OC)nc2)c(=O)c1Cc1ccc(-c2ccccc2-c2noc(=O)[nH]2)cc1 [Example 71, 6-butyl-3-[(6-methoxypyridin-3-yl)methyl]-2-methyl-5-{[2′-(5-oxo-4,5-dihydro-1,2,4-oxadiazol-3-yl)biphenyl-4-yl]methyl}pyrimidin-4(3H)-one]
61.6 | 1.8 | CCCCc1nc(C)n(CC2CCCCO2)c(=O)c1Cc1ccc(-c2ccccc2-c2noc(=O)[nH]2)cc1 (stereo not drawn) [Example 160, 6-butyl-2-methyl-5-{[2′-(5-oxo-4,5-dihydro-1,2,4-oxadiazol-3-yl)biphenyl-4-yl]methyl}-3-(tetrahydro-2H-pyran-2-ylmethyl)pyrimidin-4(3H)-one]
30.5 | 1.7 | CCCc1nc(C)n(-c2ccc(OC3CCC3)cc2)c(=O)c1Cc1ccc(-c2ccccc2-c2noc(=O)[nH]2)cc1 [Example 255, 3-[4-(cyclobutyloxy)phenyl]-2-methyl-5-{[2′-(5-oxo-4,5-dihydro-1,2,4-oxadiazol-3-yl)biphenyl-4-yl]methyl}-6-propylpyrimidin-4(3H)-one]
32.9 | 2.9 | CCCCc1nn(-c2ccc3c(c2)CC(C)(C)O3)c(=O)n1Cc1ccc(-c2ccccc2-c2noc(=O)[nH]2)cc1 [Example 136, 3-(4′-{[3-butyl-1-(2,2-dimethyl-2,3-dihydro-1-benzofuran-5-yl)-5-oxo-1,5-dihydro-4H-1,2,4-triazol-4-yl]methyl}biphenyl-2-yl)-1,2,4-oxadiazol-5(4H)-one]
46.9 | 1.5 | CCCc1nc(CC)n(-c2ccc(OC3CCOCC3)cc2)c(=O)c1Cc1ccc(-c2ccccc2-c2noc(=O)[nH]2)cc1 [Example 378, 2-ethyl-5-{[2′-(5-oxo-4,5-dihydro-1,2,4-oxadiazol-3-yl)biphenyl-4-yl]methyl}-6-propyl-3-[4-(tetrahydro-2H-pyran-4-yloxy)phenyl]pyrimidin-4(3H)-one]
